How the values were obtained:
2D2-TCR MOG (2D2) mice = assay: 2D2 mouse model of optic neuritis, myelin staining of the optic nerve; assay type: in vivo; conditions: for Number of animals, average myelin content score Low / Number of animals, average myelin content score high / Number of animals, average myelin content score moderate: sulfasalazine 200 mg/kg or memantine 5 mg/kg IP BID
Source text: This model serves as an inducible model of optic neuritis with a high rate of penetrance. The development of optic neuritis was monitored by animal observation and histopathology.
Female 2D2 (strain C57BL/6-Tg(Tcra2D2,Tcrb2D2)1Kuch/J) and WT mice (C57BL/6) were purchased from The Jackson Laboratory. Each cohort size was 14 animals. Mice were delivered to Ophthy-DS (Kalamazoo, Mich.) under the supervision of Renovo Neural (Cleveland, Ohio) at 8-12 weeks of age and then acclimated for an additional 4 weeks before beginning the experiment. Animals were housed in pathogen-free, individually-ventilated, enriched cages on a 12 h:12 h light:dark cycle with food and water ad libitum. Mice were monitored daily for welfare and symptoms of optic neuritis.
After 4 weeks of acclimation, animals were randomized by weight into 4 groups of 14 animals each. To induce optic neuritis, 200 ng of Pertussis toxin was injected into the 2D2 animals on days 1 and 3 as described by Guan et al. Dosing of vehicle or treatment compounds began at day 1. The four cohorts are: • (1) WT mice (C57BL/6) treated with vehicle (200 μl saline IP, BID). This cohort serves as a control for the readouts of optic neuritis disease. • (2) 2D2 mice vehicle treated with vehicle (200 μl saline IP, BID). […] The memantine-treated group served as a control for anti-glutamatergic therapy in the 2D2 model of optic neuritis.
On day 30, animals were euthanized and perfused. Optic nerves and retinas were dissected out and embedded in paraffin and sections mounted on slides. 5-7 sections of the optic nerve (from one eye) from ten animals in each cohort were stained by Toluidine Blue. Histopathological analysis of the slides and quantitation of the myelin staining intensity was performed blinded by a board-certified pathologist, Dr. Igor Polyakov (Minneapolis, Minn.). Staining intensity of each slide was graded as either low, moderate or high. Both peripheral and central sections of the optic nerve were graded. The intensity of the myelin staining between the cohorts on a per section and a per animal basis was compared using chi-square and Fishers' exact test with a p<0.05 considered significant.
On a per animal basis, this yielded 20 scores per cohort: average score per section×2 scores per animal (peripheral or central)×10 animals per cohort. On a per section basis, this yielded approximately 110 score per cohort: score per section×5-7 sections per animal×2 scores per section (peripheral or central)×10 animals per cohort.

[1] = tested on: xCT mRNA in primary rat astrocyte cells; assay: qPCR of xCT mRNA in primary astrocytes; assay type: cell-based
Protocol: (§1) Primary rat astrocyte cells were purchased from All Cells (Catalog #RCTX-001F, Alameda, Calif.), thawed and resuspended in 13.4 ml of DMEM media (Catalog #12-614F, Lonza, Allendale, N.J.) supplemented with 15% v/v FBS (Catalog #F4135, Sigma-Aldrich, St. Louis, Mo.) and 560 μL aliquoted into wells in a 24-well plate. Cells were incubated at 37° C. with 5% CO2. For each qPCR experiment, 2-3 wells (approximately 42,000-63,000 cells) were transferred to a new 24-well plate with fresh astrocyte media, composed of 50% v/v DMEM, 50% v/v Neurobasal media (Catalog #12348-017), Life Technologies, supplemented with 2 mM glutamine, 300 μM L-cystine. Following 24 hours, cells were then mixed and aliquoted into 24 well plates at approximately 10,000 cells per well in the same media. Compounds to be tested were then added at the indicated concentrations and cells harvested 18 hours later by washing once with PBS (Catalog #P5493, Sigma-Aldrich) and then treated with 300 μl of StemProAccutase cell dissociation reagent (Catalog #A11105-01, Life Technologies) and incubated for 5-10 minutes at 37° C. PBS (300 μl) was added and the cells spun down in a microfuge for 5 minutes at 2,000×g at 4° C. The supernatant was removed and mRNA was isolated from the cells by using the Purelink microscale RNA extraction kit (Catalog #12183016, Life Technologies) according to the manufacturer's instructions. The mRNA resuspended in 12-22 μl of RNase-free water. cDNA was prepared by use of the Superscript VILO kit (Catalog #11755050, Life Technologies) according to the manufacturer's instructions. The cDNA was eluted in a final volume of 20 μl RNase-free water in and 4 μl was used for each qPCR reaction. qPCR reactions and primers were as described in Example 11.
(§2) To determine if tunicamycin increased levels of xCT mRNA, Tunicamycin (5 ng/ml) was added to the primary astrocyte cell cultures in astrocyte media. xCT gene expression was determined by qPCR after 18 hours of exposure to tunicamycin.
(§3) The Cycle threshold is abbreviated Ct. The change in Ct equals [Ct (minus test agent)−Ct (plus test agent)]. Changes in Ct of the test genes xCT and Lcn-2 are normalized by subtracting the change in Ct of the control gene, either gamma-actin or Hypoxanthine-guanine phosphoribosyl transferase (HPRT). Ct values are converted to absolute values by the formula: absolute value=2^^(normalized change in Ct). Absolute values are converted to percent change by multiplying the absolute value by 100.
(§4) Using the methods described in Example 11, various agents known to cause activation of neuroinflammatory cells and/or cause or reflect stress and damage to neurons, axons and/or oligodendrocytes were tested for causing an increase in xCT levels in primary rat astrocytes.

[2] = tested on: Lcn-2 mRNA in primary rat astrocyte cells; assay: qPCR of Lcn-2 mRNA in primary astrocytes; assay type: cell-based; conditions: astrocyte media
Protocol: as §1, §2, §3, §4

[3] = Total (central + peripheral, 20 scores), day 30
[4] = per section basis, Central Region, day 30
[5] = per section basis, Peripheral Region, day 30
[6] = per section basis, Total, day 30
[7] = 20 ng/ml, astrocyte media, control gene gamma-actin
[8] = 100 ng/ml, astrocyte media, control gene gamma-actin
[9] = 100 ng/ml, control gene gamma-actin
[10] = 200 ng/ml, astrocyte media, control gene gamma-actin
[11] = 1 ng/ml, astrocyte media, control gene HPRT
[12] = 1 ng/ml, astrocyte media, control gene gamma-actin
[13] = 100 ng/ml, astrocyte media, control gene HPRT
[14] = 5 μM, astrocyte media, control gene gamma-actin
[15] = 50 μM, astrocyte media, control gene gamma-actin
[16] = 2 μg/ml, astrocyte media, control gene gamma-actin
[17] = 20 ug/ml, astrocyte media, control gene gamma-actin
[18] = 5 ng/ml, astrocyte media, 18 hours
[19] = 25 ng/ml, astrocyte media, control gene HPRT
[20] = 25 ng/ml, astrocyte media, control gene gamma-actin

Molecule: CC12CC3CC(C)(C1)CC(N)(C3)C2 [memantine]
- Number of animals, average myelin content score Low (2D2-TCR MOG (2D2) mice; Central Region, day 30): 0
- Number of animals, average myelin content score high (2D2-TCR MOG (2D2) mice; Central Region, day 30): 3
- Number of animals, average myelin content score moderate (2D2-TCR MOG (2D2) mice; Central Region, day 30): 7
- Number of animals, average myelin content score Low (2D2-TCR MOG (2D2) mice; Peripheral Region, day 30): 2
- Number of animals, average myelin content score high (2D2-TCR MOG (2D2) mice; Peripheral Region, day 30): 3
- Number of animals, average myelin content score moderate (2D2-TCR MOG (2D2) mice; Peripheral Region, day 30): 5
- Number of animal scores, myelin content High (2D2-TCR MOG (2D2) mice; [3]): 6
- Number of animal scores, myelin content Low (2D2-TCR MOG (2D2) mice; [3]): 2
- Number of animal scores, myelin content Moderate (2D2-TCR MOG (2D2) mice; [3]): 12
- myelin content compared to the vehicle-treated 2D2 animals (2D2-TCR MOG (2D2) mice; optic nerve, day 30): highly significant increase in myelin content
- Number of sections, myelin content Low (2D2-TCR MOG (2D2) mice; [4]): 0
- Number of sections, myelin content high (2D2-TCR MOG (2D2) mice; [4]): 14
- Number of sections, myelin content moderate (2D2-TCR MOG (2D2) mice; [4]): 41
- Number of sections, myelin content Low (2D2-TCR MOG (2D2) mice; [5]): 10
- Number of sections, myelin content high (2D2-TCR MOG (2D2) mice; [5]): 14
- Number of sections, myelin content moderate (2D2-TCR MOG (2D2) mice; [5]): 31
- Number of section scores, myelin content High (2D2-TCR MOG (2D2) mice; [6]): 28
- Number of section scores, myelin content Low (2D2-TCR MOG (2D2) mice; [6]): 10
- Number of section scores, myelin content Moderate (2D2-TCR MOG (2D2) mice; [6]): 72
- Percent scores, Myelin content-Total High (2D2-TCR MOG (2D2) mice; per-animal basis): 30%
- Percent scores, Myelin content-Total Low (2D2-TCR MOG (2D2) mice; per-animal basis): 10%
- Percent scores, Myelin content-Total Moderate (2D2-TCR MOG (2D2) mice; per-animal basis): 60%
- Percent scores, Myelin content-Total High (2D2-TCR MOG (2D2) mice; per-section basis): 25%
- Percent scores, Myelin content-Total Low (2D2-TCR MOG (2D2) mice; per-section basis): 9%
- Percent scores, Myelin content-Total Moderate (2D2-TCR MOG (2D2) mice; per-section basis): 65%

Molecule: IL-6: inflammatory cytokine
- xCT, Change in Ct normalized to control gene [1, 7]: 0.366
- xCT, Fold change normalized [1, 7]: 1.29
- xCT, Percent change normalized [1, 7]: 129%
- xCT, Change in Ct normalized to control gene [1, 8]: 0.380
- xCT, Fold change normalized [1, 8]: 1.30
- xCT, Percent change normalized [1, 8]: 130%
- Lcn-2, Percent change normalized ([2]; 20 ng/ml, control gene gamma-actin): 146%
- Lcn-2, Percent change normalized [2, 9]: 130%

Molecule: Pam2CSK4
- xCT, Change in Ct normalized to control gene [1, 10]: 0.65
- xCT, Fold change normalized [1, 10]: 1.57
- xCT, Percent change normalized [1, 10]: 157%
- Lcn-2, Percent change normalized ([2]; 200 ng/ml, control gene gamma-actin): 1,602%

Molecule: IL1-beta: inflammatory cytokine
- xCT, Change in Ct normalized to control gene [1, 11]: 1.536
- xCT, Fold change normalized [1, 11]: 2.90
- xCT, Percent change normalized [1, 11]: 290%
- xCT, Change in Ct normalized to control gene [1, 12]: 1.538
- xCT, Fold change normalized [1, 12]: 2.90
- xCT, Percent change normalized [1, 12]: 290%
- xCT, Change in Ct normalized to control gene [1, 13]: 1.515
- xCT, Fold change normalized [1, 13]: 2.86
- xCT, Percent change normalized [1, 13]: 286%
- xCT, Change in Ct normalized to control gene [1, 8]: 2.560
- xCT, Fold change normalized [1, 8]: 5.90
- xCT, Percent change normalized [1, 8]: 590%
- Lcn-2, Percent change normalized ([2]; 1 ng/ml, control gene HPRT): 23,480%
- Lcn-2, Percent change normalized ([2]; 1 ng/ml, control gene gamma-actin): 23,522%
- Lcn-2, Percent change normalized ([2]; 100 ng/ml, control gene HPRT): 9,185%
- Lcn-2, Percent change normalized [2, 9]: 18,958%

Molecule: OO [H2O2, Hydrogen Peroxide]
- xCT, Change in Ct normalized to control gene [1, 14]: 2.484
- xCT, Fold change normalized [1, 14]: 5.59
- xCT, Percent change normalized [1, 14]: 559%
- xCT, Change in Ct normalized to control gene [1, 15]: 2.588
- xCT, Fold change normalized [1, 15]: 6.01
- xCT, Percent change normalized [1, 15]: 601%
- Lcn-2, Percent change normalized ([2]; 5 μM, control gene gamma-actin): 15%
- Lcn-2, Percent change normalized ([2]; 50 μM, control gene gamma-actin): 19%

Molecule: A-beta 1-40: A-beta 1-40 peptide, misfolded/aggregated protein
- xCT, Change in Ct normalized to control gene [1, 16]: 0.276
- xCT, Fold change normalized [1, 16]: 1.21
- xCT, Percent change normalized [1, 16]: 121%
- xCT, Change in Ct normalized to control gene [1, 17]: 0.951
- xCT, Fold change normalized [1, 17]: 1.93
- xCT, Percent change normalized [1, 17]: 193%
- Lcn-2, Percent change normalized ([2]; 2 μg/ml, control gene gamma-actin): 130%
- Lcn-2, Percent change normalized ([2]; 20 ug/ml, control gene gamma-actin): 140%

Molecule: Tunicamycin
- xCT, Absolute change normalized to Gamma-actin [1, 18]: 56.1
- xCT, Absolute change normalized to HPRT [1, 18]: 23.1
- xCT, Change in Ct (not normalized) [1, 18]: 5.529
- xCT, Change in Ct normalized to Gamma actin [1, 18]: 5.809
- xCT, Change in Ct normalized to HPRT [1, 18]: 4.530
- xCT, Ct with agent [1, 18]: 25.060
- xCT, Percent change normalized to Gamma-actin [1, 18]: 5,606%
- xCT, Percent change normalized to HPRT [1, 18]: 2,310%
- xCT expression increased by ([1]; 5 ng/ml, regardless of normalization to gamma-actin or HPRT): over 2,000%
- xCT, Change in Ct normalized to control gene [1, 19]: 4.540
- xCT, Fold change normalized [1, 19]: 23.26
- xCT, Percent change normalized [1, 19]: 2,326%
- xCT, Change in Ct normalized to control gene [1, 20]: 5.915
- xCT, Fold change normalized [1, 20]: 60.34
- xCT, Percent change normalized [1, 20]: 6,034%
- Lcn-2, Absolute change normalized to Gamma-actin ([2]; 5 ng/ml, 18 hours): 64.6
- Lcn-2, Absolute change normalized to HPRT ([2]; 5 ng/ml, 18 hours): 32.3
- Lcn-2, Change in Ct (not normalized) ([2]; 5 ng/ml, 18 hours): 5.734
- Lcn-2, Change in Ct normalized to Gamma actin ([2]; 5 ng/ml, 18 hours): 6.014
- Lcn-2, Change in Ct normalized to HPRT ([2]; 5 ng/ml, 18 hours): 5.015
- Lcn-2, Ct with agent ([2]; 5 ng/ml, 18 hours): 27.123
- Lcn-2, Percent change normalized to Gamma-actin ([2]; 5 ng/ml, 18 hours): 6,460%
- Lcn-2, Percent change normalized to HPRT ([2]; 5 ng/ml, 18 hours): 3,230%
- Lcn-2, Percent change normalized ([2]; 25 ng/ml, control gene HPRT): 2,290%
- Lcn-2, Percent change normalized ([2]; 25 ng/ml, control gene gamma-actin): 5,940%
